Patent US20250313560A1, “Novel bicyclic benzylamido pyridine derivatives as SOS1 inhibitors” (Boehringer Ingelheim International GmbH, priority 2024, published 2025)
pIC50: −log10 of the molar value. Read-outs that look alike come from different tables or passages of the source.

What was measured:
SOS1 and KRAS G12C = SOS1 and KRAS G12C (Homo sapiens (Human), UniProt Q07889); experiment: KRAS::SOS1 AlphaScreen binding assay (KRAS G12C); conditions: average of at least two measurements
SOS1 and KRAS G12D = SOS1 and KRAS G12D (Homo sapiens (Human), UniProt Q07889); experiment: KRAS::SOS1 AlphaScreen binding assay (KRAS G12D); conditions: average of at least two measurements
SOS1 and KRAS G12D, sequence (Q07889 564-1049, stated change not applied): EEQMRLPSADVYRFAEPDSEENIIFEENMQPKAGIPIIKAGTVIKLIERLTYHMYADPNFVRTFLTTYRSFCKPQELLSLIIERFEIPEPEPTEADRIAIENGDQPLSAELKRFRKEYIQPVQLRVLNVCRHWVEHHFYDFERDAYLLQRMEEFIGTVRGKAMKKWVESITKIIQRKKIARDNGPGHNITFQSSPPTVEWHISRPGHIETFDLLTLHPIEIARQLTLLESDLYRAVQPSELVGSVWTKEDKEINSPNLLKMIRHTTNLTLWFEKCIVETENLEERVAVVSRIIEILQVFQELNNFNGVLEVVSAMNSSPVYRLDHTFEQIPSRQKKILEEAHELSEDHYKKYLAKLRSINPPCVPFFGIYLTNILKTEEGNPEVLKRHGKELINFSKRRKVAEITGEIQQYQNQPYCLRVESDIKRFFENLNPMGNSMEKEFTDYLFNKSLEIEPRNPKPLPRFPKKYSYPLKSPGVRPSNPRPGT

[1] = tested on: ERK phosphorylation in NCI-H358 SOS2 KO cells (KRAS G12C); experiment: Erk phosphorylation assay; assay type: cell-based, human; conditions: EGF stimulated, average of at least two measurements, read-out: pERK IC50
Method in brief: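 NCI-H358 SOS2 KO cells (KRAS G12C) in DMEM/2% FBS were pretreated 50 min with compound, then stimulated with EGF (approx. 8 ng/mL) for 10-15 min. pERK1/2 (Thr202/Tyr204) measured in lysates by AlphaLISA SureFire; IC50 from variable-slope fit, averaged over at least two measurements.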

P450 3A4 = P450 3A4 (Homo sapiens (Human), UniProt P08684); experiment: Cytochrome P450 isoenzyme inhibition assay (P450 3A4, midazolam); assay type: in vitro ADME; conditions: human liver microsomes, Midazolam as substrate; read-out: CYP3A4 inhibition IC50
P450 3A4, sequence (P08684 whole entry): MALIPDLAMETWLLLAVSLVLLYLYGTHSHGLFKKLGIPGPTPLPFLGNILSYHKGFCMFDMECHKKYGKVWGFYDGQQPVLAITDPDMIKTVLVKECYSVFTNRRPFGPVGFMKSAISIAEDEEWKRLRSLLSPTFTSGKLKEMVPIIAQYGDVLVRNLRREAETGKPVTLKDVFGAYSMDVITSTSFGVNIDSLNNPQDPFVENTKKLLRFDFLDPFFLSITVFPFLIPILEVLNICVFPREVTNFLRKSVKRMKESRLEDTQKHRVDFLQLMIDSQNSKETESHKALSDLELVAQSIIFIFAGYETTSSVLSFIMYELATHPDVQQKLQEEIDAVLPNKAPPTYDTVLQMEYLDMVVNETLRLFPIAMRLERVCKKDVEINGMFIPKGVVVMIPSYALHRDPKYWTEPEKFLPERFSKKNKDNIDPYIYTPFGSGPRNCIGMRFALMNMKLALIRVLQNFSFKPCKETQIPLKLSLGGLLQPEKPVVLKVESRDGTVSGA
Method in brief: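 Midazolam (5 μM) hydroxylation by human liver microsomes (0.1 mg/ml) in 0.1 M TRIS with 5 mM MgCl2, started with 1 mM NADPH. Five compound concentrations in duplicate, e.g. top 50 μM with 1:4 dilutions. Metabolite quantified by LC-MS/MS against internal standard; IC50 from inhibition relative to no-compound control.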

CYP3A4 = CYP3A4 (Homo sapiens (Human), UniProt P08684); experiment: Mechanism-based inhibition of CYP3A4 assay (MBI 3A4); assay type: in vitro ADME; conditions: human liver microsomes, midazolam substrate, hydroxy-midazolam formation after 30 min preincubation relative to 0 min; for inhibition at 30 min: human, probe midazolam 15 μM (hydroxy-midazolam formation), read-out: MBI inhibition % ctrl. [%] with MDZ
CYP3A4, sequence (P08684 whole entry): as above
Method in brief: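 Human liver microsomes (0.2 mg/mL) were preincubated with compound at 0, 5 or 25 μM plus 1 mM NADPH for 0, 10 or 30 min, then diluted 1:10 and incubated 10 min with 15 μM midazolam. Hydroxy-midazolam was measured by LC/MS-MS; readout is formation after 30 min relative to 0 min preincubation (%).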

human hepatocytes = experiment: Metabolic stability in human hepatocytes; conditions: 1 μM test compound, 50% human serum, percentage of liver blood flow
[2] = Homo sapiens, NCI-H358, NCI-H358 SOS2 KO cells

SOS1 and KRAS G12C, sequence (Q07889 564-1049, stated change not applied): as the sequence (Q07889 564-1049, stated change not applied) above

| Compound | IC50 (SOS1 and KRAS G12C) [nM] | IC50 (SOS1 and KRAS G12D) [nM] | pIC50 [1, 2] | pIC50 (P450 3A4) | inhibition at 30 min (CYP3A4) [%] | Hepatic clearance - QH[%] in human hepatocytes (human hepatocytes) [%] | pIC50 ([1]; NCI-H358 SOS2 KO cells) | MBI inhibition % ctrl. [%] with MDZ (CYP3A4) [%] |
| --- | --- | --- | --- | --- | --- | --- | --- | --- |
| C[C@@H](NC(=O)c1cc(N2CCC(N3CCC[C@@H](O)C3)CC2)c2ncnn2c1)c1cccc(C(F)F)c1F [Example E22] | 48 | 49 | 6.73 | < 4.30 | 100 | 19 | – | – |
| C[C@@H](NC(=O)c1cc(N2CCC(N3CC[C@@](C)(O)C3)CC2)c2ncnn2c1)c1cccc(C(F)F)c1F [Example E5] | 65 | 57 | 6.49 | < 4.30 | 103 | 16 | – | – |
| C[C@@H](NC(=O)c1cc(N2CCC(N3CCCC(O)CC3)CC2)c2ncnn2c1)c1cccc(C(F)(F)F)c1F (single isomer, unassigned) [Example E43a] | 42 | 40 | – | < 4.30 | 91 | 25 | 7.34 | – |
| C[C@@H](NC(=O)c1cc(N2CCC3(CCCN3C)CC2)c2ncnn2c1)c1cccc(C(F)(F)F)c1F [Example E37] | 31 | 21 | 6.82 | < 4.30 | 90 | 25 | – | – |
| C[C@@H](NC(=O)c1cc([C@H]2CC[C@H](N3CCC(F)C(O)C3)CC2)c2ncnn2c1)c1cccc(C(F)F)c1F (single isomer, unassigned) [trans-E61a] | 39 | 41 | – | < 4.30 | 93 | 40 | 6.41 | – |
| C[C@@H](NC(=O)c1cc(N2CCC(NC3COCC3O)CC2)c2ncnn2c1)c1cccc(C(F)(F)F)c1F (single isomer, unassigned) [Example trans-E42b] | 37 | 36 | – | < 4.30 | – | 16 | 6.82 | 94 |
| C[C@@H](NC(=O)c1cc(N2CCC3(CCNC3)CC2)c2ncnn2c1)c1cccc(C(F)(F)F)c1F [Example E36] | 28 | 22 | 6.84 | < 4.30 | 96 | 10 | – | – |
| C[C@@H](NC(=O)c1cc(N2CCC(N3CC[C@@H](O)C3)CC2)c2ncnn2c1)c1cccc(C(F)(F)F)c1F [Example E57] | 65 | 52 | 6.83 | < 4.30 | 106 | 15 | – | – |
| Cc1nnc2c(N3CCC4(CCCN4C)CC3)cc(C(=O)N[C@H](C)c3cccc(C(F)(F)F)c3F)cn12 [Example E79] | 20 | 14 | 6.97 | < 4.30 | 90 | 8 | – | – |
| CO[C@H]1CCN(C2CCN(c3cc(C(=O)N[C@H](C)c4cccc(C(F)F)c4F)cn4ncnc34)CC2)C1 [Example E10] | 74 | 67 | 6.67 | < 4.30 | 97 | 29 | – | – |
| C[C@@H](NC(=O)c1cc(N2CCC(N3CCCC(O)CC3)CC2)c2ncnn2c1)c1cccc(C(F)F)c1F (single isomer, unassigned) [Example E17b] | 38 | 32 | – | < 4.30 | 98 | 30 | 6.70 | – |
| C[C@@H](NC(=O)c1cc([C@H]2CC[C@H](N3CCC(F)C(O)C3)CC2)c2ncnn2c1)c1cccc(C(F)(F)F)c1F (single isomer, unassigned) [Example trans-E70b] | 36 | 42 | – | < 4.30 | 107 | 19 | 6.77 | – |
| C[C@@H](NC(=O)c1cc(N2CCC3(CCCCN3)CC2)c2ncnn2c1)c1cccc(C(F)F)c1F [Example E19] | 32 | 27 | 6.65 | < 4.30 | 102 | 19 | – | – |
| C[C@@H](NC(=O)c1cc(N2CCC3(CCCN3)CC2)c2ncnn2c1)c1cccc(C(F)(F)F)c1F [Example E34] | 42 | 34 | 7.21 | < 4.30 | 106 | 10 | – | – |
| C[C@@H](NC(=O)c1cc(C2=CCC(N3CCC[C@H](O)C3)CC2)c2ncnn2c1)c1cccc(C(F)F)c1F (stereo partly drawn) [Example E63] | 31 | 27 | 7.05 | < 4.30 | 94 | 23 | – | – |
| C[C@@H](NC(=O)c1cc(N2CCC(NCC(C)(C)O)CC2)c2ncnn2c1)c1cccc(C(F)(F)F)c1F [Example E50] | 49 | 42 | 6.66 | < 4.30 | 83 | 15 | – | – |
| C[C@@H](NC(=O)c1cc(N2CCC3(CCCN3C)CC2)n2ncnc2c1)c1cccc(C(F)(F)F)c1F [Example E86] | 61 | 44 | 6.76 | < 4.30 | 96 | 15 | – | – |
| C[C@@H](NC(=O)c1cc(N2CCC3(CCCN3C)CC2)c2ncnn2c1)c1cccc(C(C)(F)F)c1F [Example E74] | 26 | 21 | 6.69 | < 4.30 | 89 | 8 | – | – |
| C[C@@H](NC(=O)c1cc(N2CCC(NC3COCC3O)CC2)c2ncnn2c1)c1cccc(C(F)(F)F)c1F (single isomer, unassigned) [Example trans-E42a] | 26 | 26 | – | < 4.30 | – | 18 | 6.74 | 101 |
| C[C@@H](NC(=O)c1cc(N2CCC(N3C[C@@H](O)C4(CC4)C3)CC2)c2ncnn2c1)c1cccc(C(F)(F)F)c1F [Example E30] | 59 | 51 | 6.53 | < 4.30 | 103 | 18 | – | – |
| C[C@@H](NC(=O)c1cc(N2CCC3(CCCCN3)CC2)c2ncnn2c1)c1cccc(C(F)(F)F)c1F [Example E45] | 33 | 30 | 6.86 | < 4.30 | 97 | <4 | – | – |
